According to US8476197B2, “Aminopropenoates as fungicides” (priority 2009, dated 2013):
Marks after values point to notes of the source that are not given here.

Conditions: pH 2.7
Experimental: Measurement of logP values was performed according EEC directive 79/831 Annex V.A8 by HPLC (High Performance Liquid Chromatography) on reversed phase columns with the following methods:
^[a] measurement of LC-MS was done at pH 2.7 with 0.1% formic acid in water and with acetonitrile (contains 0.1% formic acid) as eluent with a linear gradient from 10% acetonitrile to 95% acetonitrile. ^[b] Measurement was done at pH 7.5 with 0.005 molar aqueous KH2PO4 buffer and acetonitrile as eluent. ^[c] Measurement was done at pH 2.3 with 0.1% (w/w) phosphoric acid and acetonitrile as eluent.

| SMILES | Log P |
| --- | --- |
| CCOC(=O)C(C#N)=C(NCc1ccccn1)c1sc(C)nc1C(F)(F)F [Compound 144] | 2.7^[a] |
| CCOC(=O)/C(C#N)=C(\NC(C)c1nccs1)c1sccc1Cl (stereo not shown) [Compound 149] | 3.09^[a] |
| CCOC(=O)/C(C#N)=C(\NC(C)c1nc(C)c(C)s1)c1sccc1Cl (stereo not shown) [Compound 150] | 3.76^[a] |
| CCOC(=O)/C(C#N)=C(\NC(C)Cc1c[nH]c2ccccc12)c1sccc1Cl (stereo not shown) [Compound 151] | 3.8^[a] |
| CCOC(=O)/C(C#N)=C(\NCc1nccs1)c1sccc1Cl [Compound 153] | 2.63^[a] |
| CCOC(=O)C(C#N)=C(NCc1ccccn1)c1c(C(F)F)nn(C)c1Cl [Compound 155] | 2.37^[a] |
| CCOC(=O)C(C#N)=C(NCc1ccccn1)c1sccc1Cl [Compound 159] | 2.56^[a] |
| CCOC(=O)C(C#N)=C(NCc1nccs1)c1ccsc1I [Compound 161] | 2.68^[a] |
| CCOC(=O)C(C#N)=C(NCc1ccccn1)c1ccsc1I [Compound 166] | 2.56^[a] |
| CCOC(=O)C(C#N)=C(NCc1nc2ccccc2s1)c1sccc1Br [Compound 170] | 3.53^[a] |
| CCOC(=O)C(C#N)=C(NCc1nc(C(F)(F)F)cs1)c1sccc1Br [Compound 171] | 3.37^[a] |
| CCOC(=O)C(C#N)=C(NCc1nc(C)cs1)c1sccc1C(F)(F)F [Compound 175] | 3.11^[a] |
| CCOC(=O)C(C#N)=C(NCc1nc2ccccc2s1)c1sccc1C(F)(F)F [Compound 176] | 3.67^[a] |
| CCOC(=O)C(C#N)=C(NCc1nc(C(F)(F)F)cs1)c1sccc1C(F)(F)F [Compound 177] | 3.51^[a] |
| COC(=O)C(C#N)=C(NCc1nc(C)cs1)c1sc(C)nc1C(F)(F)F [Compound 181] | 2.58^[a] |
| COC(=O)C(C#N)=C(NCc1ncc(C)s1)c1sc(C)nc1C(F)(F)F [Compound 183] | 2.63^[a] |
| COC(=O)C(C#N)=C(NCc1nc2ccccc2s1)c1sc(C)nc1C(F)(F)F [Compound 184] | 3.15^[a] |
| COC(=O)C(C#N)=C(NCc1nc(C(F)(F)F)cs1)c1sc(C)nc1C(F)(F)F [Compound 185] | 3.06^[a] |
| CCOC(=O)C(C#N)=C(NC(C)c1nc(C)cs1)c1cn(C)nc1C(F)F (stereo not shown) [Compound 188] | 2.65^[a] |
| CCOC(=O)C(C#N)=C(NCc1nc(C)cs1)c1cn(C)nc1C(F)F [Compound 189] | 2.3^[a] |
| CCOC(=O)C(C#N)=C(NC(C)c1ncc(C)s1)c1cn(C)nc1C(F)F (stereo not shown) [Compound 190] | 2.68^[a] |

| SMILES | Log P |
| --- | --- |
| CCOC(=O)C(C#N)=C(NCc1nc2ccccc2s1)c1cn(C)nc1C(F)F [Compound 191] | 2.82^[a] |
| CCOC(=O)C(C#N)=C(NCc1nc(C(F)(F)F)cs1)c1cn(C)nc1C(F)F [Compound 192] | 2.78^[a] |
| CCOC(=O)C(C#N)=C(NC(C)C1CCCO1)c1sc(C)nc1C(F)(F)F (stereo not shown) [Compound 193] | 3.29^[a] |
| CCOC(=O)C(C#N)=C(NC(C)c1nc(C)cs1)c1sc(C)nc1C(F)(F)F (stereo not shown) [Compound 194] | 3.42^[a] |
| CCOC(=O)C(C#N)=C(NCc1nc(C)cs1)c1sc(C)nc1C(F)(F)F [Compound 195] | 2.9^[a] |
| CCOC(=O)C(C#N)=C(NC(C)c1ncc(C)s1)c1sc(C)nc1C(F)(F)F (stereo not shown) [Compound 196] | 3.46^[a] |
| CCOC(=O)C(C#N)=C(NCc1nc2ccccc2s1)c1sc(C)nc1C(F)(F)F [Compound 197] | 3.48^[a] |
| CCOC(=O)C(C#N)=C(NCc1nc(C(F)(F)F)cs1)c1sc(C)nc1C(F)(F)F [Compound 198] | 3.35^[a] |
| CCOC(=O)C(C#N)=C(NC(C)C1CCCO1)c1cn(C)nc1C(F)F (stereo not shown) [Compound 199] | 2.58^[a] |
| CCOC(=O)C(C#N)=C(NCc1ccc(F)cn1)c1sccc1Br [Compound 200] | 3.04^[a] |
| CCOC(=O)C(C#N)=C(NCc1ccc(F)cn1)c1sccc1C(F)(F)F [Compound 201] | 3.19^[a] |
| COC(=O)C(C#N)=C(NCc1ccc(F)cn1)c1sc(C)nc1C(F)(F)F [Compound 202] | 2.67^[a] |
| CCOC(=O)C(C#N)=C(NCc1ccc(F)cn1)c1cn(C)nc1C(F)F [Compound 203] | 2.33^[a] |
| CCOC(=O)C(C#N)=C(NCc1ccc(F)cn1)c1sc(C)nc1C(F)(F)F [Compound 204] | 2.98^[a] |
| C=CCOC(=O)C(C#N)=C(NC(C)c1nccs1)c1sccc1Br (stereo not shown) [Compound 205] | 3.31^[a] |
| CCOC(=O)C(C#N)=C(NC(C)c1nccs1)c1nc(Cl)ccc1Cl (stereo not shown) [Compound 208] | 3.02^[a] |
| CCOC(=O)C(C#N)=C(NC(C)c1cccs1)c1sccc1C(F)(F)F (stereo not shown) [Compound 209] | 3.99^[a] |
| COC(=O)C(C#N)=C(NC(C)c1cccs1)c1sc(C)nc1C(F)(F)F (stereo not shown) [Compound 210] | 3.46^[a] |
| CCOC(=O)C(C#N)=C(NC(C)c1cccs1)c1sccc1Br (stereo not shown) [Compound 211] | 3.92^[a] |
| CCOC(=O)C(C#N)=C(NC(C)c1cccs1)c1sc(C)nc1C(F)(F)F (stereo not shown) [Compound 212] | 3.8^[a] |
| CCOC(=O)C(C#N)=C(NC(C)c1cccs1)c1cn(C)nc1C(F)F (stereo not shown) [Compound 213] | 3.02^[a] |

| SMILES | Log P |
| --- | --- |
| CC(C)NC(=O)C(C#N)=C(NC(C)c1nccs1)c1sccc1Br (stereo not shown) [Compound 214] | 3.11^[a] |
| CCOC(=O)C(C#N)=C(NC(C)c1sc(C)nc1C)c1sccc1Br (stereo not shown) [Compound 215] | 3.23^[a] |
| CCOC(=O)C(C#N)=C(NC(C)c1ncc(C)s1)c1sccc1C(F)(F)F (stereo not shown) [Compound 216] | 3.67^[a] |
| CCOC(=O)C(C#N)=C(NCc1ncc(C)s1)c1sccc1C(F)(F)F [Compound 217] | 3.19^[a] |
| CCOC(=O)C(C#N)=C(NC(C)c1sc(C)nc1C)c1sc(C)nc1C(F)(F)F (stereo not shown) [Compound 218] | 3.13^[a] |
| CCOC(=O)C(C#N)=C(NCc1ncc(C)s1)c1sc(C)nc1C(F)(F)F [Compound 219] | 3^[a] |
| CCOC(=O)C(C#N)=C(NCc1ncc(C)s1)c1sccc1Br [Compound 220] | 3.04^[a] |
| CCOC(=O)C(C#N)=C(NCc1nccs1)c1nc(Cl)ccc1Cl [Compound 226] | 2.6^[a] |
| CCOC(=O)C(C#N)=C(NCc1nccs1)c1cnc(Cl)cc1Cl [Compound 227] | 2.68^[a] |
| CCOC(=O)C(C#N)=C(NCc1nccs1)c1ncc(Cl)cc1Cl [Compound 228] | 2.7^[a] |
| CCOC(=O)C(C#N)=C(NCc1nccs1)c1c(C(F)F)nn(C)c1Cl [Compound 236] | 2.4^[a] |
| CCOC(=O)C(C#N)=C(NCc1nc(C)cs1)c1ccsc1Br [Compound 246] | 2.94^[a] |
| CCOC(=O)C(C#N)=C(NCc1ncc(C)s1)c1ccsc1Br [Compound 247] | 3^[a] |
| CCOC(=O)C(C#N)=C(NCc1nc2ccccc2s1)c1ccsc1Br [Compound 248] | 3.55^[a] |
| CCOC(=O)C(C#N)=C(NCc1nc(C(F)(F)F)cs1)c1ccsc1Br [Compound 249] | 3.42^[a] |
| CCOC(=O)C(C#N)=C(NCc1ccc(F)cn1)c1ccsc1Br [Compound 251] | 3.04^[a] |
| CCOC(=O)C(C#N)=C(NCc1nccs1)c1ccncc1Cl [Compound 259] | 2.11^[a] |
| CCOC(=O)C(C#N)=C(NCc1nccs1)c1cnccc1C(F)(F)F [Compound 272] | 2.4^[a] |
| CCOC(=O)C(C#N)=C(NC1(c2ccccn2)CC1)c1cccnc1Cl [Compound 284] | 2.56^[a] |
| CCOC(=O)C(C#N)=C(Nc1cccnc1O)c1cccnc1Cl [Compound 286] | 1.9^[a] |
| CCOC(=O)C(C#N)=C(Nc1ccncc1C)c1cccnc1Cl [Compound 293] | 1.45^[a] |

| SMILES | Log P |
| --- | --- |
| C=CCOC(=O)C(C#N)=C(NCc1nccs1)c1cn(C)nc1C(F)F [Compound 306] | 2.25^[a] |
| CCOC(=O)C(C#N)=C(NC(C)c1nccs1)c1c(C(F)(F)F)nn(C)c1Cl (stereo not shown) [Compound 311] | 3.2^[a] |
| CCOC(=O)C(C#N)=C(NC(C)c1nccs1)c1cn(C)nc1C(C)(F)F (stereo not shown) [Compound 312] | 2.62^[a] |
| CCOC(=O)C(C#N)=C(NC(C)c1ccccn1)c1c(C(F)(F)F)nn(C)c1Cl (stereo not shown) [Compound 314] | 3.24^[a] |
| CCOC(=O)C(C#N)=C(NC(C)c1ccccn1)c1cn(C)nc1C(C)(F)F (stereo not shown) [Compound 315] | 2.57^[a] |
| CCOC(=O)C(C#N)=C(NC(C)c1ccccn1)c1c(C(F)F)nn(C)c1F (stereo not shown) [Compound 316] | 2.73^[a] |
| C#CCNC(=O)C(C#N)=C(NC(C)c1nccs1)c1cccnc1Cl (stereo not shown) [Compound 317] | 2.03^[a] |
| CCOC(=O)C(C#N)=C(NC(C)c1nccs1)c1ccncc1F (stereo not shown) [Compound 318] | 2.41^[a] |
| CCOC(=O)C(C#N)=C(NCc1csc(-c2ccccc2)n1)c1cccnc1Cl [Compound 319] | 3.63^[a] |
| CCOC(=O)C(C#N)=C(NC(C)Cc1ccncc1)c1cccnc1Cl (stereo not shown) [Compound 320] | 1.64^[a] |
| CCOC(=O)C(C#N)=C(NC(C)c1cnn(C)c1)c1cccnc1Cl (stereo not shown) [Compound 321] | 2.2^[a] |
| CCOC(=O)C(C#N)=C(NC(C)c1csc(Cl)n1)c1cccnc1Cl (stereo not shown) [Compound 322] | 3.3^[a] |
| CCOC(=O)C(C#N)=C(NCc1ccc2ccccc2n1)c1cccnc1Cl [Compound 323] | 3.13^[a] |
| CC(NC(=C(C#N)C(=O)NCC(F)(F)F)c1cccnc1Cl)c1nccs1 (stereo not shown) [Compound 324] | 2.44^[a] |
| CCOC(=O)C(C#N)=C(NC(C)c1ccccn1)c1cn(C)nc1C(F)F (stereo not shown) [Compound 325] | 2.39^[a] |
| CCOC(=O)C(C#N)=C(NC(C)c1nccs1)c1cn(C)nc1C(F)F (stereo not shown) [Compound 326] | 2.44^[a] |
| COCCNC(=O)C(C#N)=C(NC(C)c1nccs1)c1cccnc1Cl (stereo not shown) [Compound 327] | 1.93^[a] |
| CCNC(=O)C(C#N)=C(NC(C)c1nccs1)c1cccnc1Cl (stereo not shown) [Compound 328] | 2.07 |
| CCOC(=O)C(C#N)=C(NC(C)c1ncccn1)c1cccnc1Cl (stereo not shown) [Compound 329] | 2.13^[a] |

Same assay, conditions: pH 7.5

| SMILES | Log P |
| --- | --- |
| CCOC(=O)C(C#N)=C(NC(C)c1nc(C(=O)OCC)cs1)c1cccnc1Cl (stereo not shown) [Compound 241] | 2.7 |
| CCOC(=O)C(C#N)=C(NC(C)c1nc(C(=O)O)cs1)c1cccnc1Cl (stereo not shown) [Compound 244] | 1.1 |
| CCNC(=O)C(C#N)=C(NC(C)c1nccs1)c1cccnc1Cl (stereo not shown) [Compound 328] | 2.05 |
